Test results reported in patent publication US12673946B2, “Pyrimidin-4(3H)-one derivatives as TRPV4 antagonists” (RaQualia Pharma Inc., priority 2020, dated 2026).

Target: T1, human TRPV4 (Homo sapiens, UniProt Q9HBA0)
T1 construct: host or cells: tetracycline-inducible Flp-In T-REx 293 cells
Experiment: Hypotonicity-induced Ca2+ influx (Fluo-4, FDSS)
Assay type: cell-based
How it was run: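 Flp-In T-REx 293 cells with tetracycline-induced human TRPV4, loaded with Fluo-4 for 60 min at 25 °C. Compound added 5 min before hypotonic mannitol/CaCl2 solution. Ca2+ signal recorded for 4.5 min on FDSS.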

[1] = Flp-In T-REx 293 cells expressing human TRPV4, examples listed under heading 'Human IC50<50 nM'
[2] = Flp-In T-REx 293 cells stably expressing human TRPV4, compounds listed by potency bin (<10 nM Tables 96-1/96-2, <3 nM Table 97)

T1 sequence (Q9HBA0 whole entry): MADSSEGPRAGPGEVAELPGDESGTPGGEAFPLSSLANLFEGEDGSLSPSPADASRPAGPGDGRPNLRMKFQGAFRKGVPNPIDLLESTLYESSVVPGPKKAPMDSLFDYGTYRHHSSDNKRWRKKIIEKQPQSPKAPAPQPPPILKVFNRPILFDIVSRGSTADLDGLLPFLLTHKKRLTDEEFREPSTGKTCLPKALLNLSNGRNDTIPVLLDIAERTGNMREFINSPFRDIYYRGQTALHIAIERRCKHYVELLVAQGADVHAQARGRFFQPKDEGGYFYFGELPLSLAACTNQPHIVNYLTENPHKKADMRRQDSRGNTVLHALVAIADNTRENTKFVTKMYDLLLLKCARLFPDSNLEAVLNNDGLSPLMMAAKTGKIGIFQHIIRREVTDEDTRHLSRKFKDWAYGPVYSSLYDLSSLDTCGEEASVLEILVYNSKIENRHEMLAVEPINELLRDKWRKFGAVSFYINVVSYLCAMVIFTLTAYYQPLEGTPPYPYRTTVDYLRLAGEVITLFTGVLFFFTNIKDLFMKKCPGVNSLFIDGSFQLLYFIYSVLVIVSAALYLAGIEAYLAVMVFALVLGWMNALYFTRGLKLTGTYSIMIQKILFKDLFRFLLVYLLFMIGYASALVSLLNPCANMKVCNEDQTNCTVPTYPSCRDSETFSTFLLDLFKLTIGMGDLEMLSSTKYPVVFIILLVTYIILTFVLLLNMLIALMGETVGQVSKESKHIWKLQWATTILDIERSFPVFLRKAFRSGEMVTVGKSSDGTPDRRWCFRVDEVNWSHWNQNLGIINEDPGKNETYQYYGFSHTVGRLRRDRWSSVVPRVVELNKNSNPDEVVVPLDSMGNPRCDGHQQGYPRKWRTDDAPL

| Compound | IC50 [1] [nM] | IC50 [2] [nM] |
| --- | --- | --- |
| O=C([C@H](O)c1cccc(C(F)(F)F)c1)N1CCCc2nc(C3(c4cc(CCC5CCOCC5)cs4)CC3)[nH]c(=O)c2C1 [30-6] | < 50 | < 10 |
| O=C([C@H](O)c1cccc(Cl)c1)N1CCc2nc(C3(c4cc(-c5ccccc5)cs4)CC3)[nH]c(=O)c2C1 [6-21] | < 50 | – |
| O=C([C@H](O)c1cccc(C(F)(F)F)c1)N1CCCc2nc(C3(c4cccc(C5=CCN(C(=O)C6(c7cccc(C(F)(F)F)c7)CC6)CC5)c4)CC3)[nH]c(=O)c2C1 [42-83] | < 50 | < 3 |
| O=C(C(O)c1cccc(F)c1F)N1CCc2nc(C3(c4cccc(F)c4)CC3)[nH]c(=O)c2C1 (stereo not shown) [3-28] | < 50 | – |
| Cn1nccc1-c1cccc(C2(c3nc4c(c(=O)[nH]3)CN(C(=O)[C@H](O)c3cccc(C(F)(F)F)c3)CCC4)CC2)c1 [42-26] | < 50 | < 10 |
| O=C(Cc1ccccc1Oc1ccccc1)N1CCCc2nc(C3(c4cccc(Cl)c4)CC3)[nH]c(=O)c2C1 [17-139] | < 50 | < 10 |
| O=C([C@H](O)c1cccc(Cl)c1)N1CCCc2nc(C3(c4cccc(-c5cc6ccccc6o5)c4)CC3)[nH]c(=O)c2C1 [40-17] | < 50 | < 3 |
| O=C([C@H](O)c1cccc(F)c1F)N1CCCc2nc(C3(c4cccc(F)c4)CC3)[nH]c(=O)c2C1 [17-60] | < 50 | – |
| O=C([C@H](O)c1cccc(Cl)c1)N1CCc2nc(C3(c4cc(C5CCCC5)cs4)CC3)[nH]c(=O)c2C1 [23-2] | < 50 | < 10 |
| CC(C)c1cccc(C2(c3nc4c(c(=O)[nH]3)CN(C(=O)[C@H](O)c3cccc(C(F)(F)F)c3)CC4)CC2)c1 [27-1] | < 50 | < 10 |
| O=C(N1CCCc2nc(C3(c4cccc(F)c4)CC3)[nH]c(=O)c2C1)C(F)(F)c1cccc(Cl)c1 [20-5] | < 50 | < 3 |
| O=C(Cc1cccc(-c2cccc(C(F)(F)F)c2)c1)N1CCCc2c(nc(C3(c4ccccc4)CC3)[nH]c2=O)C1 [17-109] | < 50 | – |
| O=C([C@H](O)c1cccc(Cl)c1)N1CCc2nc(C3(c4cc(C5CCCCC5)cs4)CC3)[nH]c(=O)c2C1 [15-7] | < 50 | < 10 |
| CC(C)c1cncc(C2(c3nc4c(c(=O)[nH]3)CN(C(=O)C(O)c3cccc(Cl)c3F)CCC4)CC2)c1 (stereo not shown) [19-12] | < 50 | < 10 |
| O=C([C@H](O)c1cccc(Cl)c1)N1CCCc2nc(C3(c4cc(C5CCCCC5)cs4)CC3)[nH]c(=O)c2C1 [18-22] | < 50 | < 3 |
| O=C(C(O)c1cccc(S(F)(F)(F)(F)F)c1)N1CCc2nc(C3(c4cccs4)CC3)[nH]c(=O)c2C1 (stereo not shown) [15-13] | < 50 | – |
| O=C(C(O)c1cccc(OCc2ccccc2)c1)N1CCCc2nc(C3(c4cccc(Cl)c4)CC3)[nH]c(=O)c2C1 (stereo not shown) [17-13] | < 50 | < 10 |
| O=C([C@H](O)c1cccc(Cl)c1)N1CCCc2nc(C3(c4cccc(C5CCCC5)c4)CC3)[nH]c(=O)c2C1 [29-3] | < 50 | < 3 |
| CC(C)c1csc(C2(c3nc4c(c(=O)[nH]3)CN(C(=O)C(O)c3cccc(C(F)(F)F)c3F)CCC4)CC2)c1 (stereo not shown) [18-16] | < 50 | < 10 |
| CC(C)c1csc(C2(c3nc4c(c(=O)[nH]3)CN(C(=O)C(O)c3cccc(C(F)(F)F)c3F)CC4)CC2)c1 (stereo not shown) [15-26] | < 50 | < 10 |
| O=C([C@H](O)c1cccc(C(F)(F)F)c1)N1CCCc2nc(C3(c4cccc(-c5cnco5)c4)CC3)[nH]c(=O)c2C1 [42-30] | < 50 | < 10 |
| O=C(N1CCCc2nc(C3(c4cccc(F)c4)CC3)[nH]c(=O)c2C1)C(F)(F)c1cccc(C(F)(F)F)c1 [20-3] | < 50 | < 3 |
| O=C(C(O)c1cccc(C2CC2)c1)N1CCCc2nc(C3(c4cccs4)CC3)[nH]c(=O)c2C1 (stereo not shown) [18-13] | < 50 | – |

The remaining lines, values ahead:

| IC50 [1] [nM] | IC50 [2] [nM] | Compound |
| --- | --- | --- |
| < 50 | < 10 | CC(C)(C)c1cccc(-c2cccc(C(O)C(=O)N3CCc4nc(C5(c6ccccc6)CC5)[nH]c(=O)c4C3)c2)c1 (stereo not shown) [44-7] |
| < 50 | < 10 | CC(C)c1cccc(C2(c3nc4c(c(=O)[nH]3)CN(C(=O)[C@H](O)c3cccc(-c5cccc(Cl)c5)c3)CCC4)CC2)c1 [51-4] |
| < 50 | < 10 | O=C([C@H](O)c1cccc(-c2cccc(C(F)(F)F)c2)c1)N1CCCc2nc(C3(c4cccc(-c5csc6ccccc56)c4)CC3)[nH]c(=O)c2C1 [52-9] |
| < 50 | – | CC(C)(C)c1ccc(-c2cccc(C(O)C(=O)N3CCc4nc(C5(c6ccccc6)CC5)[nH]c(=O)c4C3)c2)cc1 (stereo not shown) [44-42] |
| < 50 | < 10 | O=C([C@H](O)c1cccc(-c2coc3ccccc23)c1)N1CCc2nc(C3(c4ccccc4)CC3)[nH]c(=O)c2C1 [44-112] |
| < 50 | – | O=C(C(O)c1cccc(-c2ccc(C(F)F)cc2)c1)N1CCc2nc(C3(c4ccccc4)CC3)[nH]c(=O)c2C1 (stereo not shown) [44-31] |
| < 50 | < 10 | CN(C(=O)c1csc(C2(c3nc4c(c(=O)[nH]3)CN(C(=O)[C@H](O)c3cccc(C(F)(F)F)c3)CCC4)CC2)c1)C1CCCCC1 [59-2] |
| < 50 | < 10 | Cc1ccc(-c2cccc([C@@H](O)C(=O)N3CCc4nc(C5(c6ccccc6)CC5)[nH]c(=O)c4C3)c2)cc1Cl [44-94] |
| < 50 | – | O=C(C(O)c1cccc(-c2cccc(F)c2)n1)N1CCc2nc(C3(c4ccccc4)CC3)[nH]c(=O)c2C1 (stereo not shown) [48-10] |
| < 50 | < 10 | CC(C)N(C(=O)c1csc(C2(c3nc4c(c(=O)[nH]3)CN(C(=O)[C@H](O)c3cccc(C(F)(F)F)c3)CCC4)CC2)c1)C(C)C [59-14, (R)-5-(1-(6-(2-hydroxy-2-(3-(trifluoromethyl)phenyl)acetyl)-4-oxo-4,5,6,7,8,9-hexahydro-3H-pyrimido[5,4-c]azepin-2-yl)cyclopropyl)-N,N-diisopropylthiophene-3-carboxamide] |
| < 50 | < 10 | O=C([C@H](O)c1cccc(-c2cccc(OC(F)(F)F)c2)c1)N1CCCc2nc(C3(c4cccc(-c5csc6ccccc56)c4)CC3)[nH]c(=O)c2C1 [52-10] |
| < 50 | < 10 | O=C(N1CCCc2nc(C3(c4ccccc4)CC3)[nH]c(=O)c2C1)C(F)(F)c1cccc(-c2cccc(C3CC3)c2)c1 [58-4] |
| < 50 | < 10 | O=C(C(O)c1cccc(-c2ccc(Cl)cc2)c1)N1CCCc2nc(C3(c4ccccc4)CC3)[nH]c(=O)c2C1 (stereo not shown) [49-3] |
| < 50 | < 10 | O=C(C(O)c1cccc(-c2cccc(OC(F)(F)F)c2)c1)N1CCc2nc(C3(c4ccccc4)CC3)[nH]c(=O)c2C1 (stereo not shown) [44-1, 6-(2-hydroxy-2-(3′-(trifluoromethoxy)-[1,1′-biphenyl]-3-yl)acetyl)-2-(1-phenylcyclopropyl)-5,6,7,8-tetrahydropyrido[4,3-d]pyrimidin-4(3H)-one] |
| < 50 | < 10 | O=C(C(O)c1cccc(-c2ccc(Cl)c(F)c2)c1)N1CCc2nc(C3(c4ccccc4)CC3)[nH]c(=O)c2C1 (stereo not shown) [44-15] |
| < 50 | < 10 | CN(Cc1ccc(Oc2ccccc2)cc1)C(=O)c1csc(C2(c3nc4c(c(=O)[nH]3)CN(C(=O)[C@H](O)c3cccc(C(F)(F)F)c3)CCC4)CC2)c1 [59-11] |
| < 50 | – | Cc1cc(C)cc(-c2cccc([C@@H](O)C(=O)N3CCc4nc(C5(c6ccccc6)CC5)[nH]c(=O)c4C3)c2)c1 [44-113] |
| < 50 | < 3 | N#Cc1cccc(-c2cccc([C@@H](O)C(=O)N3CCCc4nc(C5(c6cccc(Cl)c6)CC5)[nH]c(=O)c4C3)c2)c1 [50-25] |
| < 50 | – | CC(=O)c1cccc(C2(c3nc4c(c(=O)[nH]3)CN(C(=O)[C@H](O)c3cccc(C(F)(F)F)c3)CCC4)CC2)c1 [60-1, (R)-2-(1-(3-acetylphenyl)cyclopropyl)-6-(2-hydroxy-2-(3-(trifluoromethyl)phenyl)acetyl)-3,5,6,7,8,9-hexahydro-4H-pyrimido[5,4-c]azepin-4-one] |
| < 50 | – | Cc1ccc(-c2cccc([C@@H](O)C(=O)N3CCc4nc(C5(c6ccccc6)CC5)[nH]c(=O)c4C3)c2)cc1C [44-114] |
| < 50 | < 3 | CC(C)c1cccc(C2(c3nc4c(c(=O)[nH]3)CN(C(=O)[C@H](O)c3cccc(C5=CCCC5)c3)CCC4)CC2)c1 [51-7] |
| < 50 | < 10 | O=C(C(O)c1cccc(-c2cccc(OC(F)(F)F)c2)c1F)N1CCc2nc(C3(c4ccccc4)CC3)[nH]c(=O)c2C1 (stereo not shown) [44-2] |
| < 50 | – | Cc1ccc(-c2cccc(C(O)C(=O)N3CCc4nc(C5(c6ccccc6)CC5)[nH]c(=O)c4C3)c2)cc1 (stereo not shown) [44-56] |
| < 50 | – | O=C(C(O)c1cccc(-c2ccccc2OC(F)(F)F)c1)N1CCc2nc(C3(c4ccccc4)CC3)[nH]c(=O)c2C1 (stereo not shown) [44-57] |
| < 50 | < 10 | O=C([C@H](O)c1cccc(-c2ccc(Cl)cc2)c1)N1CCc2nc(C3(c4ccccc4)CC3)[nH]c(=O)c2C1 [44-86] |
| < 50 | < 10 | O=C(C(O)c1cccc(-c2cnc3ccccc3c2)c1)N1CCc2nc(C3(c4ccccc4)CC3)[nH]c(=O)c2C1 (stereo not shown) [44-12] |
| < 50 | – | CC(C)Oc1ccc(-c2cccc(C(O)C(=O)N3CCc4nc(C5(c6ccccc6)CC5)[nH]c(=O)c4C3)c2)cc1 (stereo not shown) [44-38] |
| < 50 | < 10 | Cc1cc(-c2cccc([C@@H](O)C(=O)N3CCc4nc(C5(c6ccccc6)CC5)[nH]c(=O)c4C3)c2)ccc1Cl [44-117] |
| < 50 | < 10 | O=C([C@H](O)c1cccc(-c2cccc(Cl)c2)c1)N1CCCc2nc(C3(c4cc(-c5ccccc5)cs4)CC3)[nH]c(=O)c2C1 [54-13] |
| < 50 | < 10 | O=C([C@H](O)c1cccc(-c2cccc(Cl)c2)c1)N1CCCc2nc(C3(c4cncc(C5CCCCC5)c4)CC3)[nH]c(=O)c2C1 [55-13] |
